Laboratory results as given in patent US20250332173A1, “COMPOUNDS AND METHODS FOR MODULATING NUCLEIC ACID SPLICING” (REMIX THERAPEUTICS INC., priority 2021, published 2025).
pIC50: −log10 of the molar value. Where two headings read alike, the source gives them in different places.

Assays:
HTT mRNA = test: RT-qPCR splicing assay, HTT canonical junction (CJ) and alternative junction (AJ) mRNA; format: cell-based, human; conditions: Homo sapiens; for AC50: increase in HTT alternative junction (AJ) mRNA, read-out: HTT AJ AC50
Method in brief: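 Following a 24-hour incubation of A673 or K562 cells with serially diluted compound (3-fold steps, highest final 10 uM), the lysates undergo cDNA synthesis plus qPCR. Canonical and alternative junctions are each quantified against PPIA, GAPDH or GUSB.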

MYB = test: HiBiT protein abundance assay, MYB HiBiT K562 cell line; format: cell-based, human; conditions: HiBiT K562 cell line, 24 hours, top dose 10 μM; read-out: Effect on protein abundance, MYB (IC50 category)
Method in brief: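 Endogenous targets in K562 knock-in lines carried a HiBiT tag and were treated for 24 h at 37 °C with 10-point 3-fold dilutions (top 10 μM final, DMSO ≤0.25%). Abundance was read as lytic Nano-Glo HiBiT luminescence. IC50 came from a four-parameter logistic fit of normalized response.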

[1] = tested on: K562 (human chronic myelogenous leukemia) cells; test: Cell Titer Glo 2.0 cell viability assay; format: cell-based; conditions: Homo sapiens, K562, 72 h, K562 cells, 72 hours, Cell Titer Glo 2.0; read-out: K562 GI50
[2] = decrease in HTT canonical junction (CJ) mRNA, RT-qPCR, read-out: HTT CJ IC50
[3] = Table 5 panel, canonical junction qPCR, compound concentration having 50% response in CJ decrease, read-out: HTT IC50 (decrease in CJ mRNA levels)

SMILES	pIC50 (HTT mRNA; [2])	AC50 (HTT mRNA; RT-qPCR)	pIC50 (HTT mRNA; [3])	pIC50 (MYB)	GI50 [1]
Cc1nc2c(C)cc(-c3cc(F)c4c(=O)n(C5CCNC6(CC6)C5)ccc4c3)cc2o1 (centres unmarked) [Compound 418, 2-{4-azaspiro[2.5]octan-7-yl}-6-(2,4-dimethyl-1,3-benzoxazol-6-yl)-8-fluoroisoquinolin-1-one]	> 7.00	< 0.1 µM	> 7.00	> 7.00	0.1 to 1 µM
Cc1c(O)c(-c2cc(F)c3c(=O)n(C4CCNC5(CC5)C4)ccc3c2)cc2cn(C)nc12 (centres unmarked) [Compound 419, 2-{4-azaspiro[2.5]octan-7-yl}-8-fluoro-6-(6-hydroxy-2,7-dimethylindazol-5-yl)isoquinolin-1-one]	< 5.00	> 10 µM	< 5.00	5.00 to 6.00	> 10 µM
Cn1cc2cc(-c3cc(F)c4c(=O)n(C5CCNC6(CC6)C5)ccc4c3)c(O)c(F)c2n1 (centres unmarked) [Compound 420, 2-{4-azaspiro[2.5]octan-7-yl}-8-fluoro-6-(7-fluoro-6-hydroxy-2-methylindazol-5-yl)isoquinolin-1-one]	5.00 to 6.00	1 to 10 µM	5.00 to 6.00	6.00 to 7.00	1 to 10 µM
Cc1cn2cc(-c3cc(F)c4c(=O)n(C5CCNC6(CC6)C5)ccc4c3)c(O)c(C)c2n1 (centres unmarked) [Compound 421, 2-{4-azaspiro[2.5]octan-7-yl}-8-fluoro-6-{7-hydroxy-2,8-dimethylimidazo[1,2-a]pyridin-6-yl}isoquinolin-1-one]	< 5.00	> 10 µM	< 5.00	< 5.00	> 10 µM
Cc1cn2nc(-c3cc(C)c4c(=O)n(C5CCNC6(CC6)C5)ncc4c3)cc(C)c2n1 (centres unmarked) [Compound 423, 6-(2,8-dimethylimidazo[1,2-b]pyridazin-6-yl)-8-methyl-2-(4-azaspiro[2.5]octan-7-yl)phthalazin-1(2H)-one]	> 7.00	< 0.1 µM	> 7.00	> 7.00	0.1 to 1 µM
Cc1cn2cc(-c3cc(F)c4c(=O)n(C5CCNC6(CC6)C5)ccc4c3)ncc2n1 (centres unmarked) [Compound 428, 8-fluoro-6-(2-methylimidazo[1,2-a]pyrazin-6-yl)-2-(4-azaspiro[2.5]octan-7-yl)isoquinolin-1(2H)-one]	5.00 to 6.00	1 to 10 µM	5.00 to 6.00	6.00 to 7.00	1 to 10 µM
Cc1cc(-c2cc(F)c3c(=O)n(C4CCNC5(CC5)C4)ccc3c2)cc2c1nc(C)n2C (centres unmarked) [Compound 429]	< 5.00	> 10 µM	< 5.00	5.00 to 6.00	1 to 10 µM
Cc1nc2c(F)cc(-c3cc(F)c4c(=O)n(C5CCNC6(CC6)C5)ccc4c3)cc2n1C (centres unmarked) [Compound 430, 8-fluoro-6-(4-fluoro-1,2-dimethyl-1H-benzo[d]imidazol-6-yl)-2-(4-azaspiro[2.5]octan-7-yl)isoquinolin-1(2H)-one]	< 5.00	> 10 µM	< 5.00	5.00 to 6.00	1 to 10 µM
Cc1cc(-c2cc(F)c3c(=O)n(C4CCNC5(CC5)C4)ccc3c2)nc2cn(C)nc12 (centres unmarked) [Compound 431]	> 7.00	< 0.1 µM	> 7.00	> 7.00	0.1 to 1 µM
Cc1cn2nc(-c3cc(O)c4c(=O)n(C5CCNC5)ccc4c3)cc(C)c2n1 (centres unmarked) [Compound 432, 6-{2,8-dimethylimidazo[1,2-b]pyridazin-6-yl}-8-hydroxy-2-(pyrrolidin-3-yl)isoquinolin-1-one]	5.00 to 6.00	1 to 10 µM	5.00 to 6.00	> 7.00	1 to 10 µM
Cc1cn2cc(-c3cc(O)c4c(=O)n(C5CCNC5)ccc4c3)cc(C#N)c2n1 (centres unmarked) [Compound 433, 6-(8-hydroxy-1-oxo-2-(pyrrolidin-3-yl)-1,2-dihydroisoquinolin-6-yl)-2-methylimidazo[1,2-a]pyridine-8-carbonitrile]	< 5.00	> 10 µM	< 5.00	5.00 to 6.00	1 to 10 µM
Cc1cn2cc(-c3cc(F)c4c(=O)n(C5CCNC5)ccc4c3)cc(C#N)c2n1 (centres unmarked) [Compound 434, 6-[8-fluoro-1-oxo-2-(pyrrolidin-3-yl)isoquinolin-6-yl]-2-methylimidazo[1,2-a]pyridine-8-carbonitrile]	< 5.00	> 10 µM	< 5.00	5.00 to 6.00	1 to 10 µM
Cc1cn2cc(-c3ccc4c(=O)n(C5CCNCC5)cc(C)c4c3)cc(F)c2n1 [Compound 440, 6-{8-fluoro-2-methylimidazo[1,2-a]pyridin-6-yl}-4-methyl-2-(piperidin-4-yl)isoquinolin-1-one]	6.00 to 7.00	0.1 to 1 µM	6.00 to 7.00	> 7.00	< 0.1 µM
Cc1cn2cc(-c3ccc4c(=O)n(C5CCNC5)cc(C)c4c3)cc(F)c2n1 (centres unmarked) [Compound 441, 6-{8-fluoro-2-methylimidazo[1,2-a]pyridin-6-yl}-4-methyl-2-(pyrrolidin-3-yl)isoquinolin-1-one]	< 5.00	> 10 µM	< 5.00	5.00 to 6.00	1 to 10 µM
Cc1cn2cc(-c3ccc4c(=O)n(C5CCNC5)cc(C)c4c3)cc(C#N)c2n1 (centres unmarked) [Compound 442, 2-methyl-6-[4-methyl-1-oxo-2-(pyrrolidin-3-yl)isoquinolin-6-yl]imidazo[1,2-a]pyridine-8-carbonitrile]	< 5.00	> 10 µM	< 5.00	< 5.00	> 10 µM
Cc1cn2nc(-c3ccc4c(=O)n([C@H]5CCNC6(CC6)C5)ccc4c3)cc(C)c2n1 [Compound 445]	> 7.00	< 0.1 µM	> 7.00	> 7.00	< 0.1 µM
Cc1cn2nc(-c3cc(F)c4c(=O)n([C@@H]5CCNC6(CC6)C5)ncc4c3)cc(C)c2n1 [Compound 446]	> 7.00	< 0.1 µM	> 7.00	> 7.00	0.1 to 1 µM
Cc1cn2nc(-c3cc(F)c4c(=O)n([C@H]5CCNC6(CC6)C5)ncc4c3)cc(C)c2n1 [Compound 447]	> 7.00	< 0.1 µM	> 7.00	> 7.00	0.1 to 1 µM
Cc1cn2nc(-c3cc4ccn(C5CCNCC5)c(=O)c4cc3O)cc(C)c2n1 [Compound 448, 6-{2,8-dimethylimidazo[1,2-b]pyridazin-6-yl}-7-hydroxy-2-(piperidin-4-yl)isoquinolin-1-one]	> 7.00	< 0.1 µM	> 7.00	> 7.00	< 0.1 µM
COc1cc2c(=O)n(C3CCNCC3)ccc2cc1-c1cc(C)c2nc(C)cn2n1 [Compound 449, 6-{2,8-dimethylimidazo[1,2-b]pyridazin-6-yl}-7-methoxy-2-(piperidin-4-yl)isoquinolin-1-one]	< 5.00	> 10 µM	< 5.00	< 5.00	> 10 µM
Cc1cn2cc(-c3ccc4c(=O)n([C@@H]5CCNC5)cc(C)c4c3)cc(F)c2n1 [Compound 452, (R)-6-(8-fluoro-2-methylimidazo[1,2-a]pyridin-6-yl)-4-methyl-2-(pyrrolidin-3-yl)isoquinolin-1(2H)-one]	< 5.00	> 10 µM	< 5.00	5.00 to 6.00	1 to 10 µM
Cc1cn2c(n1)CCC(c1ccc3c(=O)n(C4CCNCC4)ccc3c1)C2 (centres unmarked) [Compound 453, 6-{2-methyl-5H,6H,7H,8H-imidazo[1,2-a]pyridin-6-yl}-2-(piperidin-4-yl)isoquinolin-1-one]	< 5.00	> 10 µM	< 5.00	< 5.00	> 10 µM
